Experiments:
[1] = test system: recombinant soluble human CD73; experiment: Radiometric CD73 inhibition assay, recombinant soluble human CD73; format: biochemical; conditions: human vs rat CD73 Ki, Table 5
Method: The cDNA for the soluble human CD73 (Genbank accession no. NM_002526) was obtained from Prof. Dr. Norbert Sträter (University of Leipzig, Germany) (3). […] Sf9 insect cells were grown in Insect-[…] media (#: BE12-[…], Lonza, Switzerland) with 10 mg/l gentamicin and split at a ratio of 1:3 every fourth day. For transfection, cells were seeded into cell culture flasks (25 cm^2) at 60-70% confluence. 100 μl of cell medium and 1 μl of the vector DNA (1000 ng/μ1) were mixed with 2.5 μl of baculovirus genomic ProEasyTM vector DNA (AB vector, CA, USA) and combined with premixed 100 μl of cell medium and 8 μl of CellfectinTM II Reagent (Thermo Fisher Scientific, MA, USA). […] The cells were incubated for 30 min at rt, and for further 4 days at 27° C. Cells from the transfection procedure were detached from the bottom of the flasks and centrifuged for 5 min at 2000 g. 1.5 ml of the supernatant (viral stock) was added to 75 cm^2 cell culture flasks containing Sf9 cells (60-70% confluence), and the cells were incubated for four days at 27° C. Then 1.5 ml of the supernatant were taken and added to uninfected Sf9 cells in a 75 cm^2 flask. This was repeated five more times, using more cells and larger flasks after the third round of infections (150 cm^2 to which 3.0 ml of supernatant were added). The stock P8 was finally used for infection of the cells. For protein expression, 3 ml of the virus solution were used to infect 150 ml of cell media containing 2×10^6 cells/ml in a 500 ml Erlenmeyer flask, and they were incubated for 4 days at 27° C. with shaking (150 rpm). Then, cell suspensions were transferred to 50 ml falcon tubes and centrifuged at 15 min at 5000 g at 4° C. The supernatants were subjected to ultrafiltration using Amicon® Ultra-15, 10 kDa cut-off (Merck Millipore, MA, USA) at 5000 g for 15-30 min at 4° C. The concentrated protein was purified with HisPurTM Ni^2+-NTA spin columns (#: 88226, Thermo Fisher Scientific, MA, USA). The elution of the columns was performed as recommended in the instruction manual with adjusting the incubation time for protein binding to 1 h at 4° C. with an end-over-end mixer and an additional incubation step of 5 min with the elution buffer before eluting. Eluates were pooled and dialyzed (Membra-Cer, 14 kDa cut-off, 250 mm×44 mm×0.02 mm; Carl Roth, Germany) at 4° C. in 25 mM Tris, pH 7.4, with a volume adjusted to 40 times the volume of the elution fraction. […] The enzyme was aliquoted and stored at -80° C. until use.

[2] = biological target: T1, human P2Y6 receptor (Homo sapiens, UniProt Q15077); experiment: Human P2Y6 receptor assay, calcium mobilization in 1321N1 astrocytoma cells; format: cell-based; conditions: 1321N1 cells expressing human P2Y6, read-out: hP2Y6 EC50 ± SEM
T1 construct: expressed in transfected cells; host or cells: 1321N1 human astrocytoma cells
Method: Calcium mobilization induced by the nucleotide derivatives was measured in a human astrocytoma cell line (1321N1) expressing the human P2Y6 receptor, as previously described (33).

[3] = biological target: T2, human P2Y14 receptor (Homo sapiens, UniProt Q15391); experiment: Human P2Y14 receptor assay, inhibition of binding of a fluorescent antagonist, flow cytometry in CHO cells; conditions: CHO cells expressing human P2Y14, read-out: hP2Y14 IC50 ± SEM
T2 construct: expressed in transfected cells; host or cells: CHO cells
T2 sequence (Q15391 1-338): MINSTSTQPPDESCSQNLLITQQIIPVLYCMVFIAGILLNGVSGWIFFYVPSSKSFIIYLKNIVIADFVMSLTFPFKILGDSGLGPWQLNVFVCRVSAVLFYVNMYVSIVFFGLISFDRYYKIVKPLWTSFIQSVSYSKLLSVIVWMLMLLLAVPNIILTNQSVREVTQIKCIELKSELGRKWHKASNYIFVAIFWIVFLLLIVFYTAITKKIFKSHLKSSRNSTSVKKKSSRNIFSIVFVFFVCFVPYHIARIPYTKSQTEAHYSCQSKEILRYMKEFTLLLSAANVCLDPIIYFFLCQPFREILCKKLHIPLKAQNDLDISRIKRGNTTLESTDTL
Method: Inhibition of binding of a high affinity fluorescent antagonist was measured using flow cytometry in a CHO cell line expressing the human P2Y14 receptor, as previously described (34).

[4] = biological target: T3, CD73 in human tonsillary tissue (Homo sapiens, UniProt P21589); experiment: Human tonsillar CD73-mediated AMPase activity in tonsil cryosections; format: biochemical; conditions: 1, 10, and 100 nM; mean pixel intensity, FIG. 10
T3 construct: Palatine tonsils were obtained from adult patients with chronic tonsillitis; from tissue; host or cells: human palatine tonsil cryosections
T3 sequence (P21589 27-549): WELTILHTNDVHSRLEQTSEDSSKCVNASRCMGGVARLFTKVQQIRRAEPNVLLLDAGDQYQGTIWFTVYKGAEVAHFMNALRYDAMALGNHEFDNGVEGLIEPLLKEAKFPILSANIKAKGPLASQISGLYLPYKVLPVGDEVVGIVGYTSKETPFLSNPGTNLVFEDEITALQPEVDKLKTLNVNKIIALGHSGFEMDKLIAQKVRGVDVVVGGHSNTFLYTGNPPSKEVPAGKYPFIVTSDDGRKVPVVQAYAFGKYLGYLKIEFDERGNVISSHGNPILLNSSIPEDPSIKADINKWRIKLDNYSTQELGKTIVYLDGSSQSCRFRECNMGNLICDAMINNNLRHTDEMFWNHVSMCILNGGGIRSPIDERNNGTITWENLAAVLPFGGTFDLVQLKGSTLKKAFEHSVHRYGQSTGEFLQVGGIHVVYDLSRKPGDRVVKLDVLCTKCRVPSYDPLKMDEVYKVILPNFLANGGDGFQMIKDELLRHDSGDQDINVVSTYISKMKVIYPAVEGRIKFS
Method: Palatine tonsils were obtained from adult patients with chronic tonsillitis undergoing routine tonsillectory. The tonsils were washed with phisiological salt solution, embedded in the cyro-mold with Tissue-Tek O.C.T. compound (Sakura Finetek Europe B.V., the Nethelands), cut using a cryostat and stored at −80° C. Tonsil cryoselctions were preincubated for 30 min in Trizma maleate sucrose buffer supplemented with the alkaline phosphatase inhibitor levamisole and different concentrations of compound 9h. The enzymatic reaction was then performed for 45 min at 37° C. in a final volume of […] of TMSB-buffered substrate solution containing Pb (NO3)2, CaCl2, and tested CD73 inhibitor at the same concentration. The lead orthophosphate precipitated in the course of nucleotidase activity was visualized as a brown deposit by incubating sections in (NH3)2S for 30s, followed by three washed in Trizma-maleate buffer for 5 min each. Slides were mounted with Aquatex medium (Merck, Germany). Multiple images of adjacent tissue areas were captured using a slide scanner and further stitched to a larger overview. The images of control and treated tissues were captured at identical exposure times and other settings and further acquired in parallel. Nucleotidase activities were quantified as mean pixel intensities after grayscale conversion.

[5] = biological target: T4, recombinant soluble rat CD73 (Rattus norvegicus, UniProt P21588); experiment: Radiometric rat ecto-5′-nucleotidase (CD73) assay with [3H]AMP
T4 sequence (P21588 29-551 limits assumed): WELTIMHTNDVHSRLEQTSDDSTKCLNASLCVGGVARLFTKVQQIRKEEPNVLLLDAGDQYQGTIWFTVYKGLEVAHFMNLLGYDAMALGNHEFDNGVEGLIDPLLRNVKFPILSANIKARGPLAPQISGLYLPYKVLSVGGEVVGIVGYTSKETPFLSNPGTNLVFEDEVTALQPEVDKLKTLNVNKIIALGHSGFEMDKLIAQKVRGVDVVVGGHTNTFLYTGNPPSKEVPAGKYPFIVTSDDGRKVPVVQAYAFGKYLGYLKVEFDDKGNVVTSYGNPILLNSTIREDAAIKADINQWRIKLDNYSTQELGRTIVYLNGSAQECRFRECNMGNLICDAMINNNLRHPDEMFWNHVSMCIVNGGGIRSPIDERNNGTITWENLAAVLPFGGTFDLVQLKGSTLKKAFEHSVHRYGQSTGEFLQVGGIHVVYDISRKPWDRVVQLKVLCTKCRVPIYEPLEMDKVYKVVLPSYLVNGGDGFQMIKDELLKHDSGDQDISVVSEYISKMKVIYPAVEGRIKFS
Method: After the enzymatic reaction, the substrate was separated from its product [2,8-^3H]adenosine by precipitation with lanthanum chloride followed by filtration through glass fiber filters (34). […] Ki values were calculated from the obtained IC50 values using the Cheng-Prusoff equation (6,7).
The assay was performed as previously described (41) using recombinant rat CD73 expressed in Sf9 insect cells (33). […] The mixture was incubated for 25 min at 37° C. The reaction was stopped by adding 500 μL of ice-cooled precipitation buffer containing 100 mM aqueous lanthanum chloride and 100 mM aqueous sodium acetate solution (pH 4.0). After 30 min, the precipitation was filtered through GF/B glass fiber filters (M-48, Brandel, Gaithersburg, Md., USA). After washing three times, 4 mL of the scintillation cocktail ULTIMA Gold XR was added and then quantified by scintillation counting (TRICARB 2900 TR, Packard/PerkinElmer). Three separate inhibition assays were performed in triplicate, concentration-response curves were fitted, and Ki values were calculated.
The assay was performed essentially as previously described.^D Stock solutions (10 mM) of the compounds were prepared in demineralized water and further dilutions were performed in assay reaction buffer (25 mM Tris, 140 mM sodium chloride, 25 mM sodium dihydrogen phosphate, pH 7.4). 10 μL of the inhibitor solution were added to 70 μL of assay reaction buffer. […] The enzymatic reaction was performed for 25 min at 37° C. in a shaking water bath. […] After the precipitation was completed (after at least 30 min on ice), the mixture was separated by filtration through GF/B glass fiber filters using a cell harvester (M-48, Brandel, Gaitherburg, Md., USA). After washing each reaction vial three times with 400 μl of cold (4° C.) demineralized water, 5 ml of the scintillation cocktail (ULTIMA Gold XR, PerkinElmer, MA, USA) was added and radioactivity was measured by scintillation counting (TRICARB 2900 TR, Packard/PerkinElmer; counting efficacy: 49-52%). Two controls were included and measured as duplicates. One reaction was performed without the inhibitor resulting in 100% enzyme activity (positive control) and one was incubated without the inhibitor and the enzyme and served as background control. The resulting data were subtracted from the background and were normalized with to the positive control. The results were plotted, and concentration-inhibition curves were fitted with GraphPad Prism 5 (GraphPad Software, La Jolla, USA).
After 30 min, the precipitation was filtered through GF/B glass fiber filters (M-48, Brandel, Gaithersburg, Md., USA). After washing three times, 4 mL of the scintillation cocktail ULTIMA Gold XR was added and then quantified by scintillation counting (TRICARB 2900 TR, Packard/PerkinElmer). Three separate inhibition assays were performed in triplicate, concentration-response curves were fitted, and K, values were calculated.

[6] = biological target: T5, membrane-bound CD73 (membrane preparation of MDA-MB-231 cells) (Homo sapiens, UniProt P21589); experiment: Radiometric CD73 inhibition assay, membrane preparations of MDA-MB-231 cells
T5 sequence (P21589 27-549): T3 sequence (P21589 27-549)
Method: After the enzymatic reaction, the substrate was separated from its product [2,8-^3H]adenosine by precipitation with lanthanum chloride followed by filtration through glass fiber filters (34). For compounds that inhibited CD73 activity by more than 50% at an initial screening concentration of 1 μM, full concentration-response curves were determined in at least three separate experiments performed in duplicates using 10 different concentrations of inhibitor. Ki values were calculated from the obtained IC50 values using the Cheng-Prusoff equation (6,7). […]
The assay was performed essentially as previously described.^D Stock solutions (10 mM) of the compounds were prepared in demineralized water and further dilutions were performed in assay reaction buffer (25 mM Tris, 140 mM sodium chloride, 25 mM sodium dihydrogen phosphate, pH 7.4). […] After washing each reaction vial three times with 400 μl of cold (4° C.) demineralized water, 5 ml of the scintillation cocktail (ULTIMA Gold XR, PerkinElmer, MA, USA) was added and radioactivity was measured by scintillation counting (TRICARB 2900 TR, Packard/PerkinElmer; counting efficacy: 49-52%). Two controls were included and measured as duplicates. […]

T1 sequence (Q15077 whole entry): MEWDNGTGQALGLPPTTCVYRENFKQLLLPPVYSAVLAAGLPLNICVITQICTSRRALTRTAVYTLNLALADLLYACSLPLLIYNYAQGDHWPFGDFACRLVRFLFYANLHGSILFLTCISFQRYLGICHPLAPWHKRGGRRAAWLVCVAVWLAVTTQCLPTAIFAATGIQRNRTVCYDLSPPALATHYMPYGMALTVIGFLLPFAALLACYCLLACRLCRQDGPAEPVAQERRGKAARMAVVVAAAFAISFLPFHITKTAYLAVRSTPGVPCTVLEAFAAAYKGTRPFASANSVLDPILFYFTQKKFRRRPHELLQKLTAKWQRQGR

Cn1c(=O)n([C@@H]2O[C@H](COP(=O)(O)CP(=O)(O)O)[C@@H](O)[C@H]2O)cc/c1=N/OCc1ccccc1 [Compound 9h, N^4-[O-(4-Benzyloxy)]-3-methyl-cytidine-5′-O-[(phosphonomethyl)phosphonic acid]]
potency at human CD73 as compared to the rat enzyme [1]: somewhat less potent
EC50 [2]: > 3000 µM
IC50 [3]: > 3000 µM
inhibition of the catalytic activity of CD73 in human tonsillary tissue [4]: inhibited the catalytic activity of CD73 in a concentration-dependent manner
Ki [5]: 0.00367 µM
Ki [6]: 0.00796 µM

Reference: patent publication US20210169911A1, “PURINE AND PYRIMIDINE NUCLEOTIDES AS ECTO-5'-NUCLEOTIDASE INHIBITORS” (The United States of America,as represented by the …, priority 2018, published 2021)
